# Key:
# Mus musculus [1] = assay: Apparent oral clearance in mouse at 35 mg/kg, po administered as single dose measured at 0.25 to 24 hrs by LC/MS/MS analysis; format: ADME, organism-based; details: in vivo
# Mus musculus [2] = assay: Tmax in mouse at 35 mg/kg, po administered as single dose by LC/MS/MS analysis; format: ADME, organism-based; details: in vivo
# Mus musculus [3] = assay: AUC (0 to infinity) in mouse at 20 mg/kg, iv or 35 mg/kg, po administered as single dose by LC/MS/MS analysis; format: ADME, organism-based; details: in vivo
# Mus musculus [4] = assay: Cmax in mouse at 35 mg/kg, po administered as single dose measured at 0.25 to 24 hrs by LC/MS/MS analysis; format: ADME, organism-based; parameters: dose 35 mg/kg, route oral; details: in vivo
# HT-29 [5] = assay: Cytotoxicity against human HT-29 cells after 72 hrs by MTT assay; details: HT-29, 72 h
# MDA-MB-231 = assay: Cytotoxicity against human MDA-MB-231 cells after 72 hrs by MTT assay; format: functional, cell-based; details: MDA-MB-231, 72 h
# [6] = Cytotoxicity against human MKN45 cells after 72 hrs by MTT assay; details: MKN-45, 72 h
# Mus musculus [7] = assay: Half life in mouse at 20 mg/kg, iv or 35 mg/kg, po administered as single dose by LC/MS/MS analysis; format: ADME, organism-based; details: in vivo
# [8] = Apparent volume of distribution during terminal phase in mouse at 35 mg/kg, po administered as single dose measured at 0.25 to 24 hrs by LC/MS/MS analysis; format: ADME, organism-based; details: in vivo, read-out: Vz/F
# [9] = Mean residence time (0 to infinity) in mouse at 20 mg/kg, iv or 35 mg/kg, po administered as single dose by LC/MS/MS analysis; format: ADME, organism-based; details: in vivo
# A549 [10] = assay: Cytotoxicity against human A549 cells after 72 hrs by MTT assay; format: functional, cell-based; details: A549, 72 h
# [11] = biological target: T1, Receptor-type tyrosine-protein kinase FLT3 (Homo sapiens, UniProt P36888); assay: Inhibition of Flt-3 (unknown origin) using poly(glu,Tyr)4:1 as substrate incubated for 30 mins by homogeneous time-resolved fluorescence assay
# T1 sequence (P36888 whole entry): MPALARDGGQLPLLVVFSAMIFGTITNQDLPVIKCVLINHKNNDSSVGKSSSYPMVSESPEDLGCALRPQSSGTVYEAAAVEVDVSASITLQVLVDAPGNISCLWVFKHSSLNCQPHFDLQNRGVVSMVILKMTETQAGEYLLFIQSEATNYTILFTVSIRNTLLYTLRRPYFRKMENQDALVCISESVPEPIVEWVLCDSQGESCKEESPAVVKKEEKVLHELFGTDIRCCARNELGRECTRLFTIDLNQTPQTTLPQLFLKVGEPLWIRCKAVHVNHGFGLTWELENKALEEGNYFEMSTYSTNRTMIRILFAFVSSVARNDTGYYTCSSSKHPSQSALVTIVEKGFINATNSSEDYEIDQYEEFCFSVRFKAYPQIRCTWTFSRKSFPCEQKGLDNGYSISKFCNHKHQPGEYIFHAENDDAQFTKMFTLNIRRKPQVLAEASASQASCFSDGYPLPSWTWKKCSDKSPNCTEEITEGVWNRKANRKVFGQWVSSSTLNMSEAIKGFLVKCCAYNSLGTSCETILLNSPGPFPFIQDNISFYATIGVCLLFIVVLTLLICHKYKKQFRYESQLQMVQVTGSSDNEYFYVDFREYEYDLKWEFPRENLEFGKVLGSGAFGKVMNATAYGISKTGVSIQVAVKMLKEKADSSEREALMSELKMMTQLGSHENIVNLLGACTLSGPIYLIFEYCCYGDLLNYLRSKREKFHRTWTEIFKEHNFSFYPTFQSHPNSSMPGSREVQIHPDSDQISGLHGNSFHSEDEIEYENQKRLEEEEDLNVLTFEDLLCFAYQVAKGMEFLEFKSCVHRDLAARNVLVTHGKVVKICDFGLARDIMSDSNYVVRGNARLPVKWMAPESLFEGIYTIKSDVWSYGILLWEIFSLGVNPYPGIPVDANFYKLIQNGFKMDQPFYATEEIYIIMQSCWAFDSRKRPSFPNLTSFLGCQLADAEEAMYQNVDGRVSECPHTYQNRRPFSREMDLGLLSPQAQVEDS
# [12] = biological target: Mast/stem cell growth factor receptor Kit (Homo sapiens, UniProt P10721); assay: Inhibition of c-kit (unknown origin) using poly(glu,Tyr)4:1 as substrate incubated for 30 mins by homogeneous time-resolved fluorescence assay
# Mast/stem cell growth factor receptor Kit, sequence (P10721 whole entry): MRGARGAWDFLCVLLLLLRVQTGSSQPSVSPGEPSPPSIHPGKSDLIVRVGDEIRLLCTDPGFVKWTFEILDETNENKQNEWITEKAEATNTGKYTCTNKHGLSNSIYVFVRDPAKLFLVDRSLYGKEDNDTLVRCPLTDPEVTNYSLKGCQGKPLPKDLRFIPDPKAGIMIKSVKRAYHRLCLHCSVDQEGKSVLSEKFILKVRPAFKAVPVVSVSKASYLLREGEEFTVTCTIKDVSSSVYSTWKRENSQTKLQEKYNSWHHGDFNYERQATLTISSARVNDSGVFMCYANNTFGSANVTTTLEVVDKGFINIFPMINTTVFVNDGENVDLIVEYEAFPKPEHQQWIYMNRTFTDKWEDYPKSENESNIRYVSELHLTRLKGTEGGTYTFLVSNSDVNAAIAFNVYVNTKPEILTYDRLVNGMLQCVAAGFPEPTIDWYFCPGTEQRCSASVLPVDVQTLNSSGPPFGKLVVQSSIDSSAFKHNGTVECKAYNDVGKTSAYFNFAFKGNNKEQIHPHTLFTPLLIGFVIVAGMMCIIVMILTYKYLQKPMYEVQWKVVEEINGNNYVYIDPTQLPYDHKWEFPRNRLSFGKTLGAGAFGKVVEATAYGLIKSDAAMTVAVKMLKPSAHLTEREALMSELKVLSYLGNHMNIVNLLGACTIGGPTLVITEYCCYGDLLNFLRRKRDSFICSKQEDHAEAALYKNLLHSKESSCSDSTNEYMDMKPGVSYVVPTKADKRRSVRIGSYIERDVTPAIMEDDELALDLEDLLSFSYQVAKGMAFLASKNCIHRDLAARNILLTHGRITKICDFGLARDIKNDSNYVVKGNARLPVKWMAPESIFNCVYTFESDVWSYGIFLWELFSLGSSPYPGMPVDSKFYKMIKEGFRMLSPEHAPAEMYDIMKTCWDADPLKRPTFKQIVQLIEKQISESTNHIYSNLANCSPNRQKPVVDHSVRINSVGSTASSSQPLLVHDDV
# [13] = biological target: Epidermal growth factor receptor (Homo sapiens, UniProt P00533); assay: Inhibition of EGFR (unknown origin) using poly(glu,Tyr)4:1 as substrate incubated for 30 mins by homogeneous time-resolved fluorescence assay
# HT-29 [14] = assay: Antitumor activity against human HT-29 cells xenografted in Balb/c mouse assessed as tumor growth inhibition at 50 mg/kg, po bid for 27 days relative to control; format: functional; parameters: scale not given: the % may be the effect or the level left
# Mus musculus [15] = assay: Toxicity in Balb/c mouse xenografted with human HT-29 cells assessed as change in body weight at 50 mg/kg, po bid for 27 days; format: organism-based; details: in vivo, 648 h
# HT-29 [16] = assay: Potency index, ratio of IC50 for foretinib to IC50 for test compound for cytotoxicity against human HT-29 cells; format: functional
# [17] = Potency index, ratio of IC50 for foretinib to IC50 for test compound for cytotoxicity against human MKN45 cells; format: functional, MKN-45
# PBL = assay: Cytotoxicity against human PBL cells after 72 hrs by MTT assay; format: cell-based
# Mus musculus [18] = assay: Toxicity in Balb/c mouse xenografted with human MKN45 cells assessed as change in body weight at 50 mg/kg, po bid for 24 days; format: organism-based, MKN-45; details: in vivo, 576 h
# [19] = biological target: Vascular endothelial growth factor receptor 2 (Homo sapiens, UniProt P35968); assay: Inhibition of KDR (unknown origin) using poly(glu,Tyr)4:1 as substrate incubated for 30 mins by homogeneous time-resolved fluorescence assay
# Vascular endothelial growth factor receptor 2, sequence (P35968 whole entry): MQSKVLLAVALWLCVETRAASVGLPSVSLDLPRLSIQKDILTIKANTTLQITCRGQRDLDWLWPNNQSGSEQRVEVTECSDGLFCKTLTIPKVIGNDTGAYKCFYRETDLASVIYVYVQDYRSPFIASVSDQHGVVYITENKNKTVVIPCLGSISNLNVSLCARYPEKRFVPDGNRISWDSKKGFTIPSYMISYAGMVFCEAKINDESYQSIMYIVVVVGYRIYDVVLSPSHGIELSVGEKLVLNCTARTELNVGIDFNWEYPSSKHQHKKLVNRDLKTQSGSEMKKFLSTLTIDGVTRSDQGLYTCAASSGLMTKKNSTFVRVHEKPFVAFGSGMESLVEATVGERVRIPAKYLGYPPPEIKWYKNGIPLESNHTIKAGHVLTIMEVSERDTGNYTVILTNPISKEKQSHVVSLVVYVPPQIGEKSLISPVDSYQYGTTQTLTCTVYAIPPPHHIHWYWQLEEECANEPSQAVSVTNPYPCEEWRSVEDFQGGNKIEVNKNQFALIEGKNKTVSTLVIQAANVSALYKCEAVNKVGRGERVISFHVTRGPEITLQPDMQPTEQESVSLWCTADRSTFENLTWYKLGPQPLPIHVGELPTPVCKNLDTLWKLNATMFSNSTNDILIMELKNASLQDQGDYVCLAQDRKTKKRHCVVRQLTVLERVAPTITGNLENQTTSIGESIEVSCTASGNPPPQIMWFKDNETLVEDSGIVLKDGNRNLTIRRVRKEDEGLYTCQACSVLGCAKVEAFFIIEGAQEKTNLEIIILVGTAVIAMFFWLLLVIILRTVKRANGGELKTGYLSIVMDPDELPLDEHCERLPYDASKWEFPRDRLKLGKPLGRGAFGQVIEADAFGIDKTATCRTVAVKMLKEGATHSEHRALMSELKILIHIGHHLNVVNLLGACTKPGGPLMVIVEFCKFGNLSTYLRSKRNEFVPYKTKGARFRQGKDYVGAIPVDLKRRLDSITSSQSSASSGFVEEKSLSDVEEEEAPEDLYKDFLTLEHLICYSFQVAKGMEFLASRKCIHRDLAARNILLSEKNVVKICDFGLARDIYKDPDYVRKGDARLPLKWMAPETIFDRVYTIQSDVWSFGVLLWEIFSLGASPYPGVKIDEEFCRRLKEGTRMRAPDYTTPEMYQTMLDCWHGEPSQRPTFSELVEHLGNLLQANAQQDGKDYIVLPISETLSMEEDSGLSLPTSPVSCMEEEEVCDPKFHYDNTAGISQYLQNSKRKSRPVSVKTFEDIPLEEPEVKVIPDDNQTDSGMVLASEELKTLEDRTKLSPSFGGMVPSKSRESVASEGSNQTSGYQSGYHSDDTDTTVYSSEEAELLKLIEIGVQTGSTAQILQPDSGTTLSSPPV
# [20] = biological target: Macrophage-stimulating protein receptor (Homo sapiens, UniProt Q04912); assay: Inhibition of Ron (unknown origin) using poly(glu,Tyr)4:1 as substrate incubated for 30 mins by homogeneous time-resolved fluorescence assay
# Macrophage-stimulating protein receptor, sequence (Q04912 25-304 limits assumed): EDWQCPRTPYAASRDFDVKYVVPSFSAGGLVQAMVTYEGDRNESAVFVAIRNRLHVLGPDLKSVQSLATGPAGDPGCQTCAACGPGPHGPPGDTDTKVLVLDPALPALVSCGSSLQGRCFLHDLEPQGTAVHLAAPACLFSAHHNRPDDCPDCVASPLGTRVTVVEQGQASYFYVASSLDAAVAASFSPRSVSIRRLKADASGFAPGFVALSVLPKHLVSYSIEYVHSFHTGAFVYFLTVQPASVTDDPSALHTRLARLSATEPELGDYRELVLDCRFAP
# Macrophage-stimulating protein receptor, sequence (Q04912 310-1400 limits assumed): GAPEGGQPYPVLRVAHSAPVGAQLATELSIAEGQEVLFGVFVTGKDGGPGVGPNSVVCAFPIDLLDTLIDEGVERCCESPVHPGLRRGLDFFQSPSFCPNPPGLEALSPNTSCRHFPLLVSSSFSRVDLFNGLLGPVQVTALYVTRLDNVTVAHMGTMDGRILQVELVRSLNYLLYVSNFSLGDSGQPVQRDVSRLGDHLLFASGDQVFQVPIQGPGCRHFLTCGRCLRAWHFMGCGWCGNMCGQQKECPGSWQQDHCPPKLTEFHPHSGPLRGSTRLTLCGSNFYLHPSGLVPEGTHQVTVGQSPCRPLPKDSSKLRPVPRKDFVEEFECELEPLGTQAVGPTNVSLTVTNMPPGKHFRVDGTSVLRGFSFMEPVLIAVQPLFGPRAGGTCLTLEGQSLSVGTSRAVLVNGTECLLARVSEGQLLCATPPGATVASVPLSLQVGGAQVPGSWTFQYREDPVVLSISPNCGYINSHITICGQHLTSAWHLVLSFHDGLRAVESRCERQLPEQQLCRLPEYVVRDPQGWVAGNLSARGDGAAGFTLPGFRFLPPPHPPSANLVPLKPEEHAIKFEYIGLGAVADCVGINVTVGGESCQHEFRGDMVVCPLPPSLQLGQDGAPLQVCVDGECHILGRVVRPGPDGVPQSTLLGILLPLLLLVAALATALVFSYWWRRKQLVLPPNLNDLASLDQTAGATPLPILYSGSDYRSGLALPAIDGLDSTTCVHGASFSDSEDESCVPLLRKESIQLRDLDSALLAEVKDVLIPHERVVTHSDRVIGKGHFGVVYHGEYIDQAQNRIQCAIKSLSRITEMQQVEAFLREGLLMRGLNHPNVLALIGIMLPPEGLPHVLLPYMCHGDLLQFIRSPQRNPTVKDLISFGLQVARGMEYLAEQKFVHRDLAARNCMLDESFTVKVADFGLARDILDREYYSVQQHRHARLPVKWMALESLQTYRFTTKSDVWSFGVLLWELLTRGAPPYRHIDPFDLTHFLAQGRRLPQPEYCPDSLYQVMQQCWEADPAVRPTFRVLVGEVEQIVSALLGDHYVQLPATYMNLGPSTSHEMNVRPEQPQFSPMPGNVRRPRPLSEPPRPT
# A549 [21] = assay: Potency index, ratio of IC50 for foretinib to IC50 for test compound for cytotoxicity against human A549 cells; format: functional
# [22] = biological target: Hepatocyte growth factor receptor (Homo sapiens, UniProt P08581); assay: Inhibition of c-Met kinase (unknown origin) using poly(glu,Tyr)4:1 as substrate incubated for 30 mins by homogeneous time-resolved fluorescence assay
# [23] = biological target: Platelet-derived growth factor receptor alpha (Homo sapiens, UniProt P16234); assay: Inhibition of PDGFR-alpha (unknown origin) using poly(glu,Tyr)4:1 as substrate incubated for 30 mins by homogeneous time-resolved fluorescence assay
# Platelet-derived growth factor receptor alpha, sequence (P16234 whole entry): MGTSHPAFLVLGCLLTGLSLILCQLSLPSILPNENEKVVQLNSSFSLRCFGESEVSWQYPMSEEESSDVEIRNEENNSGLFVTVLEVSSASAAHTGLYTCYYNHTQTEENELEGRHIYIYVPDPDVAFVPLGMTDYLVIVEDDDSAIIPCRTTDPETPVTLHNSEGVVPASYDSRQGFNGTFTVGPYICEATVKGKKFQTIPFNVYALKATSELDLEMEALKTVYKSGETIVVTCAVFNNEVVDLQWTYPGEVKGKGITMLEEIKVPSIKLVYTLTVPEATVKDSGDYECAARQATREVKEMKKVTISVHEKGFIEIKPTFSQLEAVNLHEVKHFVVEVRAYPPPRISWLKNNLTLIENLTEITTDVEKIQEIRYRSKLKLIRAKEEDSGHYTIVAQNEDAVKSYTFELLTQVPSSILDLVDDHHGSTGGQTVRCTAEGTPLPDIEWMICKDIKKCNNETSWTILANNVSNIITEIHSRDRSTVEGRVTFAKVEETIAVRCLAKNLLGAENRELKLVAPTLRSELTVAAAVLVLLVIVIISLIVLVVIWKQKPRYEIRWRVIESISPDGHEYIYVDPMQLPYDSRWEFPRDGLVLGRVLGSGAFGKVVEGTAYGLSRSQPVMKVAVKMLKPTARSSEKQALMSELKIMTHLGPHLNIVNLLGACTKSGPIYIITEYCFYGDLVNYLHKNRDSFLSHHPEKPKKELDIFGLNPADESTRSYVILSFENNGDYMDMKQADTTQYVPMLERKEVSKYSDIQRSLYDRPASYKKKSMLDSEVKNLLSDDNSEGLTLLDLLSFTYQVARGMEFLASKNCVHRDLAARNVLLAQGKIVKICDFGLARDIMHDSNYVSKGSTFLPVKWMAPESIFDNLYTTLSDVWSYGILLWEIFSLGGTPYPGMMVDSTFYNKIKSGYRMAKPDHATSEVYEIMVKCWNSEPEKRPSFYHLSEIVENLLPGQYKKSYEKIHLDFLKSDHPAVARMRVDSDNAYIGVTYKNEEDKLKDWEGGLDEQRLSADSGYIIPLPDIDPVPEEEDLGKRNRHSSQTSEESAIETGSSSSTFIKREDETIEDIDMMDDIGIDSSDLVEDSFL
# [24] = Antitumor activity against human MKN45 cells xenografted in Balb/c mouse assessed as tumor growth inhibition at 50 mg/kg, po bid for 24 days relative to control; format: functional, MKN-45; parameters: scale not given: the % may be the effect or the level left
Tmax (Mus musculus [2]),AUC (Mus musculus [3]),Cmax (Mus musculus [4]),t1/2 (Mus musculus [7]),Vd/F [8],MRT inf [9],SMILES,IC50 (HT-29 [5]),IC50 (MDA-MB-231),IC50 [6],IC50 (A549 [10]),also measured
0.75 h,910 ng·h/mL,78 ng/mL,3.3 h,371 L/kg,13.2 h,COc1cc2c(Oc3ccc(NC(=O)N/N=C/c4ccc(F)cc4Cl)cc3F)ccnc2cc1OCCCN1CCCCC1,260 nM,790 nM,270 nM,130 nM,CL/F (Mus musculus [1]): 1334 mL/min/kg
6 h,16500 ng·h/mL,680 ng/mL,13.75 h,43.9 L/kg,23.4 h,C=CCc1cccc(/C=N/NC(=O)Nc2ccc(Oc3ccnc4cc(OCCCN5CCCCC5)c(OC)cc34)c(F)c2)c1O,27 nM,440 nM,39 nM,11 nM,IC50 [11]: 367 nM; IC50 [12]: 162 nM; IC50 [13]: > 100000 nM; Activity (HT-29 [14]): 65.86%; Activity (Mus musculus [15]): Non-toxic; Ratio IC50 (HT-29 [16]): 9.6; Ratio IC50 [17]: 1.7; IC50 (PBL): 107000 nM; Activity (Mus musculus [18]): Non-toxic; IC50 [19]: 210 nM; IC50 [20]: 14.5 nM; Ratio IC50 (A549 [21]): 15.4; IC50 [22]: 1.54 nM; IC50 [23]: 212 nM; Activity [24]: 70.18%

# Source: ChEMBL document CHEMBL3763046 (Bioorg Med Chem, 2016)
